The values below come from PMC3001719, “The heme sensing response regulator HssR in Staphylococcus aureus but not the homologous RR23 in Listeria monocytogenes modulates susceptibility to the antimicrobial peptide plectasin” (BMC Microbiology, 2010).

SMILES strings stand for the structures.

Series [1] has as its system S. aureus wild type. Description: Spontaneous mutation control on plectasin plates. The following applies: S. aureus wild type grown on TSB with 4, 5 or 10 fold MIC of plectasin. In kind it is cell-based, Staphylococcus aureus. On the procedure: The transposon mutant libraries were screened on agar plates for increased resistance to plectasin as compared to wild-type sensitivity. Wild-type sensitivity was determined by plating approx. 1.0 × 10^7 CFU/ml on TSB agar containing plectasin (S. aureus) and approx. 1.0 × 10^5 CFU/ml on Muller Hinton Broth agar plates (MHB, 212322 Becton Dickinson) with plectasin (L. monocytogenes). Plates were incubated at 37°C for 3 days and inspected for growth. The transposon libraries were screened on TSB agar with 300 μg/ml, 500 or 750 μg/ml plectasin (S. aureus) or MHB plates with 250 μg/ml or 500 μg/ml plectasin (L. monocytogenes) at 37°C for up to 7 days.

Series [2] has as its system methicillin resistant S. aureus (MRSA). As to conditions: cited from earlier work. From the text: (§1) In the present study, we addressed the response of two human pathogens, S. aureus and L. monocytogenes to plectasin. […] In addition, the two bacteria represent different routes of infection and may be exposed to different arrays of HDPs. S. aureus is a hospital- and community-acquired pathogen that causes a wide range of diseases including septicaemia, toxic-shock syndrome and food poisoning ...

Series [3] relates to L. monocytogenes. As to conditions: cited from earlier work.
Source text: as §1

In series [4] the test system is S. aureus 8325-4 hssR mutant. Briefly: Growth in TSB with plectasin and/or hemin. In kind it is cell-based, Staphylococcus aureus. The following applies: plectasin 35 μg/ml, 37°C, absorbance at 600 nm, transduced 8325-4 hssR mutant. On the procedure:
(§2) Overnight cultures of S. aureus were diluted to an absorbance at 600 nm of 0.05 in TSB with and without 4 μM hemin and/or 35 μg/ml plectasin and grown at 37°C. Measurements of the absorbance were made every 30 minutes.

The test system of series [5] is S. aureus 8325-4 wild type. Description: Growth in TSB with plectasin and/or hemin. The format is cell-based, Staphylococcus aureus. As to conditions: plectasin 35 μg/ml, 37°C, absorbance at 600 nm. As for the experimental part:
as §2

Series [6] deals with mice, human keratinocytes and erythrocytes. The following applies: in mice and on human keratinocytes and erythrocytes; cited from earlier work. From the text:
Recently, the antimicrobial peptide, plectasin isolated from a saprophytic fungus, was described.

The subject of series [7] is S. aureus wild type and hssR mutants. Description: Extracellular protein profile by SDS-PAGE. The format is cell-based, Staphylococcus aureus. The following applies: S. aureus wild type and hssR mutants grown with or without plectasin overnight at 37°C in TSB; data not shown. On the procedure:
Prewarmed TSB and BHI (25 ml) in a 250 ml Erlenmeyer flask was inoculated with S. aureus strains and L. monocytogenes strains, respectively. These flasks were grown with and without plectasin at 37°C overnight (≈ 17 h) with shaking. The next morning, the exact absorbance at 600 nm of the cultures was measured, and 15 ml of culture was centrifuged to precipitate the cells (6 000 RPM; 7 min; 0°C). The supernatant was transferred to a 50 ml Blue cap bottle (placed in an ice/water bath), and the extracellular proteins were precipitated by adding one volume of ice-cold 96% EtOH and left in the refrigerator overnight for proteins to precipitate. Precipitated proteins were collected by centrifugation (11,000 RPM; 30 min; 0°C). Protein pellets were suspended in a volume of 50 mM Tris-HCl (pH 6.8) adjusted to the original absorbance of the overnight culture so that 15 ml of overnight culture with absorbance at 600 nm of 5.0 was suspended in 0.8 ml of 50 mM Tris-HCl (pH 6.8). A sample of 15 μl of the protein extracts was analysed on NuPAGE® 4-12% Bis-Tris gels (Invitrogen) using the X Cell SureLock® Mini-Cell system (Invitrogen) as recommended by the supplier. The gels were Coomassie stained using GelCode® Blue Stain Reagent (Pierce).

For series [8], the system named is S. aureus. Briefly: ATP leakage (intracellular and extracellular ATP, bioluminescence). The format is cell-based, Staphylococcus aureus. The following applies: S. aureus, 500 μg/ml peptide, 50 mM HEPES pH 7.0 with 0.2% glucose, vs peptide dilution buffer; two independent experiments. On the procedure: (§3) L. monocytogenes and S. aureus were grown in TSB at 37°C. Bacteria were harvested (10 min at 3000 RPM) at mid-exponential phase (absorbance at 546 nm of 2.5 ± 0.2 and 1.0 ± 0.2 for S. aureus and L. monocytogenes, respectively), washed once in 50 mM potassium phosphate buffer pH 7.0 and once in 50 mM HEPES buffer pH 7.0. The pellet was resuspended in 50 mM HEPES pH 7.0 to a final absorbance at 546 nm of 10. Bacteria were stored on ice and used within 5 hours. […] ATP was determined using a bioluminescence kit (Sigma, FLAA-1KT) and a BioOrbit 1253 luminometer. Total ATP content was determined by rapidly permeabilising 20 μl cell suspension with 80 μl dimethyl sulfoxide. The cell suspension was diluted in 4.9 ml sterile water, and ATP content was determined in 100 μl of the preparation as described by the manufacturer. To determine the extracellular ATP concentration, the 20 μl cell suspension was mixed with 80 μl sterile water and analyzed as described above. Intracellular ATP concentrations were calculated by using the intracellular volumes of 0.85 and 1.7 μm^3 for S. aureus and L. monocytogenes, respectively. The number of cells in suspension was determined by plate spreading.

Series [9] has as its system S. aureus 8325-4 hssR::bursa. Briefly: In vitro bacterial killing kinetics. The format is cell-based, Staphylococcus aureus. The following applies: plectasin 1× MIC, TSB, 37°C, CFU after 1, 3 and 5 hours; 8325-4 hssR::bursa mutant. As for the experimental part:
(§4) Overnight cultures of S. aureus wild type […], 8325-4 hssR::bursa and 8325-4 hssR::bursa/pRMC2-hssRS were diluted 1000 fold in TSB and grown 2 hours at 37°C. Samples were taken to time T = 0 and plated for CFU determination. Plectasin (1× MIC) was added, and samples were withdrawn after 1,3 and 5 hours growth at 37°C and plated for CFU determination.

Series [10] concerns S. aureus 8325-4 wild type. Briefly: In vitro bacterial killing kinetics. In kind it is cell-based, Staphylococcus aureus. The following applies: plectasin 1× MIC, TSB, 37°C, CFU after 1, 3 and 5 hours. On the procedure: as §4
Series [11] concerns L. monocytogenes. Description: MIC of plectasin stated in the text. The following applies: difference in MIC values between the strains. In kind it is cell-based, Listeria monocytogenes.
Series [12] concerns L. monocytogenes. Briefly: ATP leakage (intracellular and extracellular ATP, bioluminescence). The format is cell-based, Listeria monocytogenes. The following applies: L. monocytogenes, 500 μg/ml peptide, 50 mM HEPES pH 7.0 with 0.2% glucose, vs peptide dilution buffer. On the procedure: as §3

With `CC[C@H](C)[C@@H]1NC(=O)[C@H](CO)NC(=O)[C@H](CCCCN)NC(=O)[C@@H]2CSSC[C@@H](C(=O)N[C@@H](Cc3ccc(O)cc3)C(=O)O)NC(=O)[C@H](CCCCN)NC(=O)[C@@H]3CSSC[C@H](NC(=O)[C@H](CCC(N)=O)NC(=O)[C@H](CCSC)NC(=O)[C@H](CC(=O)O)NC(=O)[C@H](CC(=O)O)NC(=O)[C@H](CCC(=O)O)NC(=O)[C@H](CC(=O)O)NC(=O)[C@H](Cc4c[nH]c5ccccc45)NC(=O)[C@@H]4CCCN4C(=O)CNC(=O)[C@H](CC(N)=O)NC(=O)[C@@H](NC(=O)CNC(=O)[C@H](Cc4ccccc4)NC(=O)CN)CSSC[C@H](NC(=O)[C@H](Cc4ccc(O)cc4)NC(=O)CNC(=O)CNC(=O)[C@H](CCCCN)NC(=O)[C@H](Cc4ccc(O)cc4)NC(=O)CNC(=O)[C@H](CCCCN)NC1=O)C(=O)N[C@@H](C)C(=O)N[C@@H](CCCCN)C(=O)NCC(=O)NCC(=O)N[C@@H](Cc1ccccc1)C(=O)N[C@@H](C(C)C)C(=O)N3)C(=O)N[C@@H](Cc1c[nH]cn1)C(=O)N[C@@H](CC(N)=O)C(=O)N[C@@H](Cc1c[nH]cn1)C(=O)N2` [plectasin], the “Spontaneous mutations leading to changes in sensitivity” value in [1] is “no spontaneous mutations”. In addition, the MIC (usually the least concentration at which growth counts as inhibited) in series [2] was 16 to 32 µg/mL; in series [3], “above 64 mg/L”. Further, the “Growth in the presence of plectasin” value in series [4] is on record as “hardly affected the growth”; in series [5] it was “inhibited the growth”. In addition, in [6], the Toxicity result is “very low toxicity”. Also, in series [7], the “Abundance of extracellular proteins” value is “no difference in the abundance of extracellular proteins”. For the same molecule, the “ATP leakage (intracellular ATP concentration)” value in series [8] and in series [12] was “remained at the same level as the controls” in each case. Further, the entries for the “Kinetics of bacterial killing in vitro” value in series [9] and in series [10] were “killed slower than the wild type” and “killed rapidly”, respectively. Also, in series [11], the “Tolerance of L. monocytogenes compared to S. aureus” value is recorded as 4-8 fold.
